Data published in ChEMBL document CHEMBL3414487, “Synthesis and biological activity of salinomycin conjugates with floxuridine” (Eur J Med Chem, 2015).
Values after ≈ are worked out from the molar mass of the structure shown.

Assays:
[1] = Antiproliferative activity against human HL60 cells assessed as growth inhibition after 72 hrs by MTT assay; type: functional, cell-based; settings: HL-60, 72 h
[2] = Antiproliferative activity against human vincristine-resistant HL60/Vinc cells assessed as growth inhibition after 72 hrs by MTT assay; type: functional; settings: Homo sapiens, HL60/vinc, 72 h
LoVo [3] = experiment: Antiproliferative activity against human LoVo cells assessed as growth inhibition after 72 hrs by SRB method; type: functional, cell-based; settings: Homo sapiens, LoVo, 72 h
[4] = Antiproliferative activity against human doxorubicin-resistant LoVo/DX cells assessed as growth inhibition after 72 hrs by SRB method; type: functional, cell-based
HT-29 [5] = experiment: Antiproliferative activity against human HT-29 cells assessed as growth inhibition after 72 hrs by SRB method; type: functional, cell-based; settings: Homo sapiens, HT-29, 72 h
[6] = Antiproliferative activity against human LS180 cells assessed as growth inhibition after 72 hrs by SRB method; type: functional, cell-based; settings: Homo sapiens, LS180, 72 h
[7] = Antiproliferative activity against human SW707 cells assessed as growth inhibition after 72 hrs by SRB method; type: functional, cell-based; settings: Homo sapiens, SW707, 72 h
BALB/3T3 = experiment: Antiproliferative activity against mouse BALB/3T3 cells assessed as growth inhibition after 72 hrs by SRB method; type: cell-based; settings: BALB/3T3, 72 h
HL-60 [8] = experiment: Selectivity index, ratio of IC50 for mouse BALB/3T3 cells to IC50 for human HL60 cells; type: functional
[9] = Selectivity index, ratio of IC50 for mouse BALB/3T3 cells to IC50 for human HL60/Vinc cells; type: functional
LoVo [10] = experiment: Selectivity index, ratio of IC50 for mouse BALB/3T3 cells to IC50 for human LoVo cells; type: functional
[11] = Selectivity index, ratio of IC50 for mouse BALB/3T3 cells to IC50 for human LoVo/DX cells; type: functional
HT-29 [12] = experiment: Selectivity index, ratio of IC50 for mouse BALB/3T3 cells to IC50 for human HT-29 cells; type: functional
[13] = Selectivity index, ratio of IC50 for mouse BALB/3T3 cells to IC50 for human LS180 cells; type: functional
[14] = Selectivity index, ratio of IC50 for mouse BALB/3T3 cells to IC50 for human SW707 cells; type: functional
HL-60 [15] = experiment: Resistance index, ratio of IC50 for human HL60/Vinc cells to IC50 for human HL60 cells
LoVo [16] = experiment: Resistance index, ratio of IC50 for human LoVo/DX cells to IC50 for human LoVo cells
Staphylococcus aureus [17] = experiment: Antimicrobial activity against Staphylococcus aureus […] 4163 after 18 hrs by two-fold serial microdilution method; type: functional
Staphylococcus aureus [18] = experiment: Antimicrobial activity against Staphylococcus aureus ATCC 25923 after 18 hrs by two-fold serial microdilution method; type: functional; settings: ATCC 25923, 18 h
Staphylococcus aureus [19] = experiment: Antimicrobial activity against Staphylococcus aureus ATCC 6538 after 18 hrs by two-fold serial microdilution method; type: functional; settings: ATCC 6538, 18 h
Staphylococcus aureus [20] = experiment: Antimicrobial activity against Staphylococcus aureus ATCC 29213 after 18 hrs by two-fold serial microdilution method; type: functional; settings: ATCC 29213, 18 h
[21] = system: Staphylococcus epidermidis; experiment: Antimicrobial activity against Staphylococcus epidermidis ATCC 12228 after 18 hrs by two-fold serial microdilution method; type: functional; settings: ATCC 12228, 18 h
[22] = system: Staphylococcus epidermidis; experiment: Antimicrobial activity against Staphylococcus epidermidis ATCC 35984 after 18 hrs by two-fold serial microdilution method; type: functional; settings: ATCC 35984, 18 h
Staphylococcus aureus [23] = experiment: Antimicrobial activity against methicillin-resistant Staphylococcus aureus 452/11 after 18 hrs by two-fold serial microdilution method; type: functional; settings: 452/11, 18 h
Staphylococcus aureus [24] = experiment: Antimicrobial activity against methicillin-resistant Staphylococcus aureus 456/11 after 18 hrs by two-fold serial microdilution method; type: functional; settings: 456/11, 18 h
Staphylococcus aureus [25] = experiment: Antimicrobial activity against methicillin-resistant Staphylococcus aureus 462/11 after 18 hrs by two-fold serial microdilution method; type: functional; settings: 462/11, 18 h
Staphylococcus aureus [26] = experiment: Antimicrobial activity against methicillin-resistant Staphylococcus aureus 514/11 after 18 hrs by two-fold serial microdilution method; type: functional; settings: 514/11, 18 h
Staphylococcus aureus [27] = experiment: Antimicrobial activity against methicillin-resistant Staphylococcus aureus 522/12 after 18 hrs by two-fold serial microdilution method; type: functional; settings: 522/12, 18 h
Staphylococcus aureus [28] = experiment: Antimicrobial activity against methicillin-resistant Staphylococcus aureus 537/12 after 18 hrs by two-fold serial microdilution method; type: functional; settings: 537/12, 18 h
Staphylococcus aureus [29] = experiment: Antimicrobial activity against methicillin-resistant Staphylococcus aureus 572/12 after 18 hrs by two-fold serial microdilution method; type: functional; settings: 572/12, 18 h
Staphylococcus aureus [30] = experiment: Antimicrobial activity against methicillin-resistant Staphylococcus aureus 573/12 after 18 hrs by two-fold serial microdilution method; type: functional; settings: 573/12, 18 h
Staphylococcus aureus [31] = experiment: Antimicrobial activity against methicillin-resistant Staphylococcus aureus 585/12 after 18 hrs by two-fold serial microdilution method; type: functional; settings: 585/12, 18 h
Staphylococcus aureus [32] = experiment: Antimicrobial activity against methicillin-resistant Staphylococcus aureus 586/12 after 18 hrs by two-fold serial microdilution method; type: functional; settings: 586/12, 18 h
[33] = system: Staphylococcus epidermidis; experiment: Antimicrobial activity against methicillin-resistant Staphylococcus epidermidis 459/11 after 18 hrs by two-fold serial microdilution method; type: functional; settings: 459/11, 18 h
[34] = system: Staphylococcus epidermidis; experiment: Antimicrobial activity against methicillin-resistant Staphylococcus epidermidis 460/11 after 18 hrs by two-fold serial microdilution method; type: functional; settings: 460/11, 18 h
[35] = system: Staphylococcus epidermidis; experiment: Antimicrobial activity against methicillin-resistant Staphylococcus epidermidis 461/11 after 18 hrs by two-fold serial microdilution method; type: functional; settings: 461/11, 18 h
[36] = system: Staphylococcus epidermidis; experiment: Antimicrobial activity against methicillin-resistant Staphylococcus epidermidis 466/11 after 18 hrs by two-fold serial microdilution method; type: functional; settings: 466/11, 18 h
[37] = system: Staphylococcus epidermidis; experiment: Antimicrobial activity against methicillin-resistant Staphylococcus epidermidis 467/11 after 18 hrs by two-fold serial microdilution method; type: functional; settings: 467/11, 18 h
[38] = system: Staphylococcus epidermidis; experiment: Antimicrobial activity against methicillin-resistant Staphylococcus epidermidis 468/11 after 18 hrs by two-fold serial microdilution method; type: functional; settings: 468/11, 18 h
[39] = system: Staphylococcus epidermidis; experiment: Antimicrobial activity against methicillin-resistant Staphylococcus epidermidis 469/11 after 18 hrs by two-fold serial microdilution method; type: functional; settings: 469/11, 18 h
[40] = system: Staphylococcus epidermidis; experiment: Antimicrobial activity against methicillin-resistant Staphylococcus epidermidis 470/11 after 18 hrs by two-fold serial microdilution method; type: functional; settings: 470/11, 18 h
[41] = system: Staphylococcus epidermidis; experiment: Antimicrobial activity against methicillin-resistant Staphylococcus epidermidis 488/11 after 18 hrs by two-fold serial microdilution method; type: functional; settings: 488/11, 18 h
[42] = system: Staphylococcus epidermidis; experiment: Antimicrobial activity against methicillin-resistant Staphylococcus epidermidis 489/11 after 18 hrs by two-fold serial microdilution method; type: functional; settings: 489/11, 18 h

CC[C@@H](C(=O)[C@@H](C)[C@@H](O)[C@H](C)[C@@H]1O[C@@H]([C@@H](CC)C(=O)O)CC[C@@H]1C)[C@H]1O[C@]2(C=C[C@@H](O)[C@]3(CC[C@@](C)([C@H]4CC[C@](O)(CC)[C@H](C)O4)O3)O2)[C@H](C)C[C@@H]1C [SALINOMYCIN]
IC50 [1]: 0.29 µM | IC50 [2]: 2.09 µM | IC50 (LoVo [3]): 0.36 µM | IC50 [4]: 0.76 µM | IC50 (HT-29 [5]): 1.03 µM | IC50 [6]: 0.61 µM | IC50 [7]: 1.73 µM | IC50 (BALB/3T3): 9.33 µM | Selectivity Index (HL-60 [8]): 32.17 | Selectivity Index [9]: 4.46 | Selectivity Index (LoVo [10]): 25.92 | Selectivity Index [11]: 12.28 | Selectivity Index (HT-29 [12]): 9.06 | Selectivity Index [13]: 15.3 | Selectivity Index [14]: 5.39 | Ratio IC50 (HL-60 [15]): 7.21 | Ratio IC50 (LoVo [16]): 2.11 | MIC (Staphylococcus aureus [17]): 2.66 µM (≈ 2 µg/mL) | MIC (Staphylococcus aureus [18]): 2.66 µM (≈ 2 µg/mL) | MIC (Staphylococcus aureus [19]): 2.66 µM (≈ 2 µg/mL) | MIC (Staphylococcus aureus [20]): 2.66 µM (≈ 2 µg/mL) | MIC [21]: 2.66 µM (≈ 2 µg/mL) | MIC [22]: 2.66 µM (≈ 2 µg/mL) | MIC (Staphylococcus aureus [23]): 1.33 µM (≈ 0.999 µg/mL) | MIC (Staphylococcus aureus [24]): 1.33 µM (≈ 0.999 µg/mL) | MIC (Staphylococcus aureus [25]): 2.66 µM (≈ 2 µg/mL) | MIC (Staphylococcus aureus [26]): 2.66 µM (≈ 2 µg/mL) | MIC (Staphylococcus aureus [27]): 2.66 µM (≈ 2 µg/mL) | MIC (Staphylococcus aureus [28]): 2.66 µM (≈ 2 µg/mL) | MIC (Staphylococcus aureus [29]): 1.33 µM (≈ 0.999 µg/mL) | MIC (Staphylococcus aureus [30]): 1.33 µM (≈ 0.999 µg/mL) | MIC (Staphylococcus aureus [31]): 2.66 µM (≈ 2 µg/mL) | MIC (Staphylococcus aureus [32]): 2.66 µM (≈ 2 µg/mL) | MIC [33]: 2.66 µM (≈ 2 µg/mL) | MIC [34]: 2.66 µM (≈ 2 µg/mL) | MIC [35]: 2.66 µM (≈ 2 µg/mL) | MIC [36]: 2.66 µM (≈ 2 µg/mL) | MIC [37]: 2.66 µM (≈ 2 µg/mL) | MIC [38]: 2.66 µM (≈ 2 µg/mL) | MIC [39]: 2.66 µM (≈ 2 µg/mL) | MIC [40]: 2.66 µM (≈ 2 µg/mL) | MIC [41]: 2.66 µM (≈ 2 µg/mL) | MIC [42]: 2.66 µM (≈ 2 µg/mL)

O=c1[nH]cc(F)c(=O)[nH]1 [FLUOROURACIL]
IC50 [1]: 22.5 µM | IC50 [2]: 21.2 µM | IC50 (LoVo [3]): 4.69 µM | IC50 [4]: 6 µM | IC50 (HT-29 [5]): 25.1 µM | IC50 [6]: 38.9 µM | IC50 [7]: 20.5 µM | IC50 (BALB/3T3): 3.23 µM | Selectivity Index (HL-60 [8]): 0.14 | Selectivity Index [9]: 0.15 | Selectivity Index (LoVo [10]): 0.69 | Selectivity Index [11]: 0.54 | Selectivity Index (HT-29 [12]): 0.13 | Selectivity Index [13]: 0.08 | Selectivity Index [14]: 0.16 | Ratio IC50 (HL-60 [15]): 0.94 | Ratio IC50 (LoVo [16]): 1.28 | MIC (Staphylococcus aureus [17]): 1.92 µM (≈ 0.25 µg/mL) | MIC (Staphylococcus aureus [18]): 1.92 µM (≈ 0.25 µg/mL) | MIC (Staphylococcus aureus [19]): 3.85 µM (≈ 0.501 µg/mL) | MIC (Staphylococcus aureus [20]): 3.85 µM (≈ 0.501 µg/mL) | MIC [21]: 3.85 µM (≈ 0.501 µg/mL) | MIC [22]: 1.92 µM (≈ 0.25 µg/mL) | MIC (Staphylococcus aureus [23]): 3.85 µM (≈ 0.501 µg/mL) | MIC (Staphylococcus aureus [24]): 3.85 µM (≈ 0.501 µg/mL) | MIC (Staphylococcus aureus [25]): 7.69 µM (≈ 1 µg/mL) | MIC (Staphylococcus aureus [26]): 3.85 µM (≈ 0.501 µg/mL) | MIC (Staphylococcus aureus [27]): 7.69 µM (≈ 1 µg/mL) | MIC (Staphylococcus aureus [28]): 7.69 µM (≈ 1 µg/mL) | MIC (Staphylococcus aureus [29]): 3.85 µM (≈ 0.501 µg/mL) | MIC (Staphylococcus aureus [30]): 3.85 µM (≈ 0.501 µg/mL) | MIC (Staphylococcus aureus [31]): 3.85 µM (≈ 0.501 µg/mL) | MIC (Staphylococcus aureus [32]): 3.85 µM (≈ 0.501 µg/mL) | MIC [33]: 3.85 µM (≈ 0.501 µg/mL) | MIC [34]: 1.92 µM (≈ 0.25 µg/mL) | MIC [35]: 0.96 µM (≈ 0.125 µg/mL) | MIC [36]: 0.48 µM (≈ 0.0624 µg/mL) | MIC [37]: 0.48 µM (≈ 0.0624 µg/mL) | MIC [38]: 0.48 µM (≈ 0.0624 µg/mL) | MIC [39]: 1.92 µM (≈ 0.25 µg/mL) | MIC [40]: 0.48 µM (≈ 0.0624 µg/mL) | MIC [41]: 1.92 µM (≈ 0.25 µg/mL) | MIC [42]: 0.48 µM (≈ 0.0624 µg/mL)
